pIC50: −log10 of the molar value.

Assay [1] has as its target T1, full length recombinant Pim-1 protein (Homo sapiens, UniProt P11309).
T1 construct: by full length recombinant Pim-1, Pim-2, or Pim-3 protein; hexahistidine tag followed by a thrombin cleavage site (N); made in house; host or cells: Sf9 (baculovirus) or E. coli (pET28)
The assay can be described thus: Pim-1 enzyme assay (HTRF, phosphorylation of biotinylated-BAD (S112) peptide). The note with it: read-out: Pim_1_IC50. In kind it is biochemical. Put shortly: (§1)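 Kinase: full-length human Pim-1/Pim-2, His6-thrombin tagged. Substrate biotin-BAD (S112) peptide. Buffer 60 mM Hepes pH 7.0, 0.05% BSA, 2 mM DTT. Stop 3 mM EDTA. Detection HTRF (Eu anti-pBAD/SA-APC). IC50 by 4-parameter logistic on POC.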

Assay [2] addresses T2, full length recombinant Pim-2 protein (Homo sapiens, UniProt Q9P1W9).
T2 construct: by full length recombinant Pim-1, Pim-2, or Pim-3 protein; hexahistidine tag followed by a thrombin cleavage site (N); made in house; host or cells: Sf9 (baculovirus) or E. coli (pET28)
The assay can be described thus: Pim-2 enzyme assay (HTRF, phosphorylation of biotinylated-BAD (S112) peptide). Type of assay: biochemical. The note with it: read-out: Pim2_IC50. Put shortly: as §1

Assay [3] concerns the target T3, Pim-1 stably transfected into the U2OS human osteogenic sarcoma line (Homo sapiens, UniProt P11309).
T3 construct: expressed in transfected cells; host or cells: U2OS human osteogenic sarcoma line
The assay can be described thus: Pim cell assay, phospho-BAD normalized against total BAD, U2OS stably transfected with Pim-1. Type of assay: cell-based. As to conditions: U2OS stably transfected with Pim-1; phospho-BAD normalized against total BAD; 29 min incubation; read-out: Pim1_Cell_IC50_. The procedure: (§2) The cell lines used in the assay were generated by the stable transfection of either Pim-1 or Pim-2 into the U2OS human osteogenic sarcoma line. The assay for determination of the Pim activity in the engineered U2OS cell lines measures levels of phospho-BAD normalized against total BAD protein levels. It was conducted as follows:
(§3) The adherent cells were dissociated from the flasks using non-enzymatic cell dissociation solution (Sigma # C5914). […] The cells were then incubated overnight at 37° C., 5% CO2.
(§4) In addition to the 10-point dosing curve of the test compound, DMSO alone was run as the high control.
(§5) This dilution in DMSO was then diluted again into cell growth medium. Aliquots (12 uL) of the compound diluted in growth medium were then transferred to the appropriate wells of the 96-well plates containing cells to yield a final DMSO concentration of 0.3%.
(§6) The cell plates containing lysis buffer were then immediately stored at −70° C.
(§7) These prepared lysates were then assayed for phospho and total BAD according to the manufacturer's protocols (Meso Scale Diagnostics, Cat# K15103C-3 & # K15103D-3). The plates were read on the MSD Sector Imager 6000, and results were calculated according to the assay protocols ((% Phosphoprotein=((2×Phospho signal)/(Phospho signal+Total signal))×100)).

In assay [4] the target is T4, Pim-2 stably transfected into the U2OS human osteogenic sarcoma line (Homo sapiens, UniProt Q9P1W9).
T4 construct: expressed in transfected cells; host or cells: U2OS human osteogenic sarcoma line
Put plainly: Pim cell assay, phospho-BAD normalized against total BAD, U2OS stably transfected with Pim-2. Type of assay: cell-based. As to conditions: U2OS stably transfected with Pim-2; phospho-BAD normalized against total BAD; 29 min incubation; read-out: Pim2_Cell_IC50_. The procedure: as §2, §3, §4, §5, §6, §7

T4 sequence (Q9P1W9 whole entry): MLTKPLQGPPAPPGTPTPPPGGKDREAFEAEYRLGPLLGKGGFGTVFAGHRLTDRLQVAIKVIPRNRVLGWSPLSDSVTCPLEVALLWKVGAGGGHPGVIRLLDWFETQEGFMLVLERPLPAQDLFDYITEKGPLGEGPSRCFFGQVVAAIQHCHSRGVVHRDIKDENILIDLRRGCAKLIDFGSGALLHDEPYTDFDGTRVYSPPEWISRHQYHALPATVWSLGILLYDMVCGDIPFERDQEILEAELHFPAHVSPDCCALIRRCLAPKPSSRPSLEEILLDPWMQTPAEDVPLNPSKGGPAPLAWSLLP
T2 sequence (Q9P1W9 whole entry): as above
T1 sequence (P11309 whole entry): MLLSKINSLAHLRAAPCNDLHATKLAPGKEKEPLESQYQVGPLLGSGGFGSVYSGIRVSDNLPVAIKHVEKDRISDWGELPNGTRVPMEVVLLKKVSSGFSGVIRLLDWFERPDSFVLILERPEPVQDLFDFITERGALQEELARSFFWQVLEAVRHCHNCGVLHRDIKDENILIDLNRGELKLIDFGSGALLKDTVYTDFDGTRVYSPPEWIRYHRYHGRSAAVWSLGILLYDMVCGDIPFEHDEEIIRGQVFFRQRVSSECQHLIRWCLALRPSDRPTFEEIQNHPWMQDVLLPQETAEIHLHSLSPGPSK
T3 sequence (P11309 whole entry): as above

With `COc1cc(-c2ccc3[nH]cc(-c4cncc(O[C@@H]5CCCNC5)n4)c3c2)c(F)cn1` [Example 290], the pIC50 was 8.40 in assay [1], 7.96 in assay [2], 6.50 in assay [3] and 5.19 in assay [4].
For the molecule `c1cc2[nH]cc(-c3cncc(O[C@@H]4CCCNC4)n3)c2cc1-c1cnn(C2CC2)c1` [Example 291, 5-(1-cyclopropyl-1H-pyrazol-4-yl)-3-(6-((3R)-3-piperidinyloxy)-2-pyrazinyl)-1H-indole], the pIC50 in assay [1] is 8.22; in assay [2], 7.49; in assay [3], 6.81; in assay [4], 4.93.
In the case of `COc1ccc(-c2ccc3[nH]cc(-c4cncc(O[C@@H]5CCCNC5)n4)c3c2)cc1F` [Example 292], the pIC50 in assay [1] was 8.40; in assay [2], 7.72; in assay [3], 6.19; in assay [4] it was no more than 4.45.
Turning to `Oc1ncc(-c2ccc3[nH]cc(-c4cncc(O[C@@H]5CCCNC5)n4)c3c2)c(O)n1` [Example 293], the pIC50 in assay [1] is 7.80; in assay [2], 7.22; in assay [3], less than 4.50; in assay [4], less than 4.50.
As to `COc1cc(OC)cc(-c2ccc3[nH]cc(-c4cncc(O[C@@H]5CCCNC5)n4)c3c2)c1` [Example 294], the pIC50 was 8.15 in assay [1], 7.59 in assay [2], 6.28 in assay [3] and 5.02 in assay [4].
As for `Fc1cnccc1-c1ccc2[nH]cc(-c3cncc(O[C@@H]4CCCNC4)n3)c2c1` [Example 297, 5-(3-fluoro-4-pyridinyl)-3-(6-((3R)-3-piperidinyloxy)-2-pyrazinyl)-1H-indole], the pIC50 in assay [1] is 8.52; in assay [2], 8.15; in assay [3] it was 6.78; in assay [4], 5.07.
As to `c1cc(-c2ccc3[nH]cc(-c4cncc(O[C@@H]5CCCNC5)n4)c3c2)nc(N2CCNCC2)c1` [Example 299], the pIC50 in assay [1] is 8.52; in assay [2] it was 6.64; in assay [3] it was 5.90; in assay [4] it was less than 4.50.
Regarding `c1cc(N2CCOCC2)ccc1-c1ccc2[nH]cc(-c3cncc(O[C@@H]4CCCNC4)n3)c2c1` [Example 309, 5-(4-(4-morpholinyl)phenyl)-3-(6-((3R)-3-piperidinyloxy)-2-pyrazinyl)-1H-indole], the pIC50 in assay [1] was 8.40; in assay [2] it was 7.74; in assay [3], 6.90; in assay [4], 4.77.
With `O=C(Nc1ccc(-c2ccc3[nH]cc(-c4cncc(O[C@@H]5CCCNC5)n4)c3c2)cc1)C1CC1` [Example 311], the pIC50 in assay [1] was 8.10; in assay [2], 7.60; in assay [3], 6.39; in assay [4], less than 4.50.
Take `OCc1cccc(-c2ccc3[nH]cc(-c4cncc(O[C@@H]5CCCNC5)n4)c3c2)c1` [Example 315]: the pIC50 in assay [1] was 8.15; in assay [2], 7.62; in assay [3] it was 6.35; in assay [4], 5.04.
Consider `OCc1ccc(-c2ccc3[nH]cc(-c4cncc(O[C@@H]5CCCNC5)n4)c3c2)cc1` [Example 316, (4-(3-(6-((3R)-3-piperidinyloxy)-2-pyrazinyl)-1H-indol-5-yl)phenyl)methanol], for which the pIC50 in assay [1] was 8.70; in assay [2] it was 8.05; in assay [3] it was 6.99; in assay [4], 5.47.
In the case of `COc1ccc(-c2ccc3[nH]cc(-c4cncc(O[C@@H]5CCCNC5)n4)c3c2)cc1` [Example 321], the pIC50 was 8.30 in assay [1], 7.72 in assay [2], 6.18 in assay [3] and 4.63 in assay [4].
`CC(C)Oc1ccc(-c2ccc3[nH]cc(-c4cncc(O[C@@H]5CCCNC5)n4)c3c2)cc1` [Example 324]: the pIC50 in assay [1] is 8.40; in assay [2], 7.47; in assay [3] it was 6.02; in assay [4] it was less than 4.50.
As to `N#Cc1ccccc1-c1ccc2[nH]cc(-c3cncc(O[C@@H]4CCCNC4)n3)c2c1` [Example 326], the pIC50 in assay [1] was 8.52; in assay [2], 8.00; in assay [3], 6.50; in assay [4], 5.14.
Consider `CC(=O)Nc1ccc(-c2ccc3[nH]cc(-c4cncc(O[C@@H]5CCCNC5)n4)c3c2)cc1` [Example 327], for which the pIC50 was 8.30 in assay [1], 7.72 in assay [2], 6.18 in assay [3] and 5.09 in assay [4].
In the case of `N#Cc1ncccc1-c1ccc2[nH]cc(-c3cncc(O[C@@H]4CCCNC4)n3)c2c1` [Example 333], the pIC50 was 7.96 in assay [1], 7.40 in assay [2], 6.10 in assay [3] and less than 5.00 in assay [4].
On the same counts, the results for `c1cc2[nH]cc(-c3cncc(O[C@@H]4CCCNC4)n3)c2cc1-c1cnc2c(c1)CCCN2` [Example 335] are 8.30, 7.14, 5.97 and less than 4.50.
On to `c1cc2cc(-c3ccc4[nH]cc(-c5cncc(O[C@@H]6CCCNC6)n5)c4c3)cnc2[nH]1` [Example 336], for which the pIC50 in assay [1] was 8.10; in assay [2], 7.48; in assay [3], 6.07; in assay [4] it was less than 5.00.
In the case of `Cc1n[nH]c2ncc(-c3ccc4[nH]cc(-c5cncc(O[C@@H]6CCCNC6)n5)c4c3)cc12` [Example 339], the pIC50 in assay [1] was 7.85; in assay [2], 7.04; in assay [3], 5.59; in assay [4], less than 4.50.
On the same counts, the results for `Nc1ccc(-c2ccc3[nH]cc(-c4cncc(O[C@@H]5CCCNC5)n4)c3c2)cc1OC(F)(F)F` [Example 341] are 8.05, 7.16, 5.90 and less than 4.80.
Take `c1cc2c(cc1-c1ccc3[nH]cc(-c4cncc(O[C@@H]5CCCNC5)n4)c3c1)OCO2` [Example 343]: the pIC50 in assay [1] was 8.40; in assay [2], 7.72; in assay [3], 5.92; in assay [4] it was less than 4.80.
As to `FC(F)Oc1cccc(-c2ccc3[nH]cc(-c4cncc(O[C@@H]5CCCNC5)n4)c3c2)c1` [Example 344], the pIC50 in assay [1] is 8.05; in assay [2] it was 7.17; in assay [3] it was 5.44; in assay [4] it was less than 4.80.
With `COc1ccc(-c2ccc3[nH]cc(-c4cncc(O[C@@H]5CCCNC5)n4)c3c2)cc1OC` [Example 345], the pIC50 was 7.70 in assay [1], 6.80 in assay [2], 6.14 in assay [3] and less than 4.80 in assay [4].
`CN1CCOc2cc(-c3ccc4[nH]cc(-c5cncc(O[C@@H]6CCCNC6)n5)c4c3)ccc21` [Example 347]: the pIC50 was 8.70 in assay [1], 7.80 in assay [2], 6.56 in assay [3] and 5.01 in assay [4].
On the same counts, the results for `N#CC1(c2cccc(-c3ccc4[nH]cc(-c5cncc(O[C@@H]6CCCNC6)n5)c4c3)c2)CCC1` [Example 350] are 8.22, 6.71, 5.63 and less than 4.80.
In the same order, the values of `CC(C)Oc1cccc(-c2ccc3[nH]cc(-c4cncc(O[C@@H]5CCCNC5)n4)c3c2)c1` [Example 360] are 8.10, 7.03, 5.57 and less than 4.80.

The values above are taken from patent publication US9090593B2, “Bicyclic compounds as Pim inhibitors” (AMGEN INC., priority 2010, dated 2015).
